How the values were obtained:
Assay type in all cases: in vivo
Pharbitis purpurea = assay: Post-emergence herbicidal activity against PHBPU; conditions: dosage 320 g/ha, rated about 3 weeks after treatment
Method: (§1) LOLRI: Lolium rigidum PHBPU: Pharbitis purpurea 2. Post-Emergence Herbicidal Action and Crop Plant Compatibility Seeds of monocotyledonous and dicotyledonous weeds and crop plants are placed in sandy loam in plastic or wood-fiber pots, covered with soil and cultivated in a greenhouse under controlled growth conditions. 2 to 3 weeks after sowing, the test plants are treated at the one-leaf stage. The compounds of the invention, formulated in the form of wettable powders (WP) or as emulsion concentrates (EC), are then sprayed onto the green parts of the plants as aqueous suspension or emulsion with addition of 0.5% additive at a water application rate of 600 l/ha (converted). After the test plants had been kept in the greenhouse under optimum growth conditions for about 3 weeks, the activity of the preparations is rated visually in comparison to untreated controls. For example, 100% activity=the plants have died, 0% activity=like control plants.

Abutilon theophrasti = assay: Post-emergence herbicidal activity against ABUTH; conditions: dosage 320 g/ha, rated about 3 weeks after treatment
Method: as §1, with “ABUTH: Abutilon theophrasti ALOMY: Alopecurus myosuroides” for “LOLRI: Lolium rigidum PHBPU: Pharbitis purpurea”

Echinochloa crus-galli = assay: Post-emergence herbicidal activity against ECHCG; conditions: dosage 320 g/ha, rated about 3 weeks after treatment
Method: as §1, with “ECHCG: Echinochloa crus-galli HORMU: Hordeum murinum” for “LOLRI: Lolium rigidum PHBPU: Pharbitis purpurea”

Amaranthus retroflexus = assay: Post-emergence herbicidal activity against AMARE; conditions: dosage 320 g/ha, rated about 3 weeks after treatment
Method: as §1, with “AMARE: Amaranthus retroflexus AVEFA: Avena fatua” for “LOLRI: Lolium rigidum PHBPU: Pharbitis purpurea”

Alopecurus myosuroides = assay: Post-emergence herbicidal activity against ALOMY; conditions: dosage 320 g/ha, rated about 3 weeks after treatment
Method: as §1, with “ABUTH: Abutilon theophrasti ALOMY: Alopecurus myosuroides” for “LOLRI: Lolium rigidum PHBPU: Pharbitis purpurea”

Avena fatua = assay: Post-emergence herbicidal activity against AVEFA; conditions: dosage 320 g/ha, rated about 3 weeks after treatment
Method: as §1, with “AMARE: Amaranthus retroflexus AVEFA: Avena fatua” for “LOLRI: Lolium rigidum PHBPU: Pharbitis purpurea”

Stellaria media = assay: Post-emergence herbicidal activity against STEME; conditions: dosage 320 g/ha, rated about 3 weeks after treatment
Method: as §1, with “STEME: Stellaria media VERPE: Veronica persica” for “LOLRI: Lolium rigidum PHBPU: Pharbitis purpurea”

Veronica persica = assay: Post-emergence herbicidal activity against VERPE; conditions: dosage 320 g/ha
Method: as §1, with “STEME: Stellaria media VERPE: Veronica persica” for “LOLRI: Lolium rigidum PHBPU: Pharbitis purpurea”

Hordeum murinum = assay: Post-emergence herbicidal activity against HORMU; conditions: dosage 320 g/ha
Method: as §1, with “ECHCG: Echinochloa crus-galli HORMU: Hordeum murinum” for “LOLRI: Lolium rigidum PHBPU: Pharbitis purpurea”

Lolium rigidum = assay: Post-emergence herbicidal activity against LOLRI; conditions: dosage 320 g/ha, rated about 3 weeks after treatment
Method: as §1

Setaria viridis = assay: Post-emergence herbicidal activity against SETVI; conditions: dosage 320 g/ha, rated about 3 weeks after treatment
Method: as §1, with “POLCO: Polygonum convolvulus SETVI: Setaria viridis” for “LOLRI: Lolium rigidum PHBPU: Pharbitis purpurea”

Polygonum convolvulus = assay: Post-emergence herbicidal activity against POLCO; conditions: dosage 320 g/ha, rated about 3 weeks after treatment
Method: as §1, with “POLCO: Polygonum convolvulus SETVI: Setaria viridis” for “LOLRI: Lolium rigidum PHBPU: Pharbitis purpurea”

Viola tricolor = assay: Post-emergence herbicidal activity against VIOTR; conditions: dosage 320 g/ha, rated about 3 weeks after treatment
Method: as §1, with “VIOTR: Viola tricolor” for “LOLRI: Lolium rigidum PHBPU: Pharbitis purpurea”

Row | Compound | Post-emergence herbicidal activity against PHBPU in % (Pharbitis purpurea) [%] | Post-emergence herbicidal activity against ABUTH in % (Abutilon theophrasti) [%] | Post-emergence herbicidal activity against ECHCG in % (Echinochloa crus-galli) [%] | Post-emergence herbicidal activity against AMARE in % (Amaranthus retroflexus) [%] | Post-emergence herbicidal activity against ALOMY in % (Alopecurus myosuroides) [%] | Post-emergence herbicidal activity against AVEFA in % (Avena fatua) [%] | Post-emergence herbicidal activity against STEME in % (Stellaria media) [%] | Post-emergence herbicidal activity against VERPE in % (Veronica persica) [%] | Post-emergence herbicidal activity against HORMU in % (Hordeum murinum) [%] | Post-emergence herbicidal activity against LOLRI in % (Lolium rigidum) [%] | Post-emergence herbicidal activity against SETVI in % (Setaria viridis) [%] | Post-emergence herbicidal activity against POLCO in % (Polygonum convolvulus) [%] | Post-emergence herbicidal activity against VIOTR in % (Viola tricolor) [%]
1 | C=CC1(C(=O)NC2COC(C(=O)OCc3ccc(OC)cc3)C2)CC(c2cc(F)cc(F)c2)=NO1 (mixture of isomers) [I-54] | 90 | 90 | 90 | 80 | 90 | 90 | 90 | 90 | 90 | 90 | 90 | 90 | 90
2 | C=CC1(C(=O)NC2COC(C(=O)OCc3cccc(F)c3)C2)CC(c2cc(F)cc(F)c2)=NO1 (mixture of isomers) [I-52] | 90 | 90 | 90 | 90 | 90 | 90 | 90 | 90 | 90 | 90 | 90 | 90 | 90
3 | CC1(C(=O)NC2COC(C(=O)OCc3cccc(F)c3)C2)CC(c2cc(F)cc(F)c2)=NO1 (mixture of isomers) [I-53] | 90 | 90 | 90 | 90 | 90 | 90 | 90 | 90 | 90 | 90 | 90 | 90 | 90
4 | CC(C)OC(=O)C1CC(NC(=O)C2(C(C)(F)F)CC(c3cc(F)cc(F)c3)=NO2)CO1 (stereo not shown) [I-51] | 90 | 80 | 90 | 80 | 100 | 100 | 90 | 90 | 90 | 90 | 90 | 90 | 90

From US11597724B2, “Herbicidally active 3-phenylisoxazoline-5-carboxamides of tetrahydro and dihydrofuran carboxylic acids and esters” (Bayer Aktiengesellschaft, priority 2017, dated 2023)
